From patent US5795907A, “Gastin and CCK receptor ligands” (James Black Foundation Limited, priority 1994, dated 1998) come the findings set out here.

For one experiment, the target named is T1, CCKB receptor (Mus musculus, UniProt P56481).
T1 construct: The cortex was dissected, weighed and homogenised in 40ml ice-cold buffer; tissue Charles River (supplier of the CD1 mice); host or cells: cerebral cortex membranes of male CD1 mice
T1 sequence (P56481 1-453): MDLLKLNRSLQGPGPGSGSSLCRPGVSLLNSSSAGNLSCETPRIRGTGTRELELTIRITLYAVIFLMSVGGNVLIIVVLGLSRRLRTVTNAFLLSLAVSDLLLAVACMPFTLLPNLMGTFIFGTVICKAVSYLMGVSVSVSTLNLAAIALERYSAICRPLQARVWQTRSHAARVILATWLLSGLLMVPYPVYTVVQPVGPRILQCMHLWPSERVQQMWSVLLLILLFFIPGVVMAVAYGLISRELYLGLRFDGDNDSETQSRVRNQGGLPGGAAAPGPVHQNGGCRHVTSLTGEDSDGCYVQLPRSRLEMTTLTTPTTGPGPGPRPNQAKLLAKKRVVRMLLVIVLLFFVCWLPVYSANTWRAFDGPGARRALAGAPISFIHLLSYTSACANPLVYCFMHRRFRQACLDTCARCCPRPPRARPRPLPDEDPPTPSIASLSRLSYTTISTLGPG
Briefly: CCKB receptor radioligand binding assay in mouse cortical membranes ([125I]-CCK8S). Particulars: [125I]-CCK8S 200 pM, 150 min at 21±3°; for Ki: read-out: CCKB pKi (converted). In short, it runs like this:
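Cortical membranes from male CD1 mice in HEPES buffer (pH 7.2; NaCl, KCl, MgCl2, EDTA, bacitracin) were incubated with competing compound and [125I]-CCK8S (added as a 200 pM solution) for 150 min at 21±3°. Non-specific binding was defined with L-365,260. Bound tracer was separated by GF/B filtration and counted by gamma counting.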

Another experiment addresses T2, gastrin (Rattus norvegicus, UniProt P30553).
T2 construct: The stomach was lowered into a jacketed organ bath containing 40 ml of buffered solution; from tissue; host or cells: isolated perfused whole stomach of immature rats (ca. 21 days old)
T2 sequence (P30553 1-452): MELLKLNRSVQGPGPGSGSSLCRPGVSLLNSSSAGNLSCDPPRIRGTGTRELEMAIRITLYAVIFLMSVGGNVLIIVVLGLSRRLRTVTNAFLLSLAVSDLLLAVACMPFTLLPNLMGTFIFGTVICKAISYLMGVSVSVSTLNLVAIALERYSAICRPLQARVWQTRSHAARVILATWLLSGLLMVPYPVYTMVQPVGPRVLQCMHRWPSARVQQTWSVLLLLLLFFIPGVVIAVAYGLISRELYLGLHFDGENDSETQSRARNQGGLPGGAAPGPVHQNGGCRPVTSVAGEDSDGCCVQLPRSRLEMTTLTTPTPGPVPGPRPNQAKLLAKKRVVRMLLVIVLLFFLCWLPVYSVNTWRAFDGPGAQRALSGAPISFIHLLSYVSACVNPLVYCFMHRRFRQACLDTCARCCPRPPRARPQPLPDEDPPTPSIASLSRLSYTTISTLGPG
Briefly: gastrin antagonist activity in an immature rat stomach assay (pentagastrin-stimulated acid secretion). Particulars: cumulative pentagastrin dose-response curves after 60 min with drug; for Kb: read-out: Gastrin pKB (converted). How it is done: The compounds of the examples were also tested for gastrin antagonist activity in an immature rat stomach assay. The procedure was as follows:
The oesophagus of immature rats (33-50 g, ca. 21 days old) was ligated at the level of the cardiac sphincter and the duodenal sphincter was cannulated. The stomach was excised and flushed with ca. 1 ml of unbuffered physiological saline solution. The fundus was punctured and cannulated. A further 4-5 ml of unbuffered solution was flushed through the stomach to ensure the preparation was not leaking. The stomach was lowered into a jacketed organ bath containing 40 ml of buffered solution containing 3×10^-8 M 5-methylfurmethide, maintained at 37° and gassed vigorously with 95% O2 /5% CO2. The stomach was continuously perfused at a rate of 1 ml min^-1 with unbuffered solution gassed with 100% O2 with the perfusate passing over an internally referenced pH-electrode fixed 12 cm above the stomach.
After 120 min of stabilisation the drugs were added directly to the serosal solution in the organ bath and after a further 60 min cumulative pentagastrin dose-response curves were started. Changes in acid secretion were monitored and the curves analysed according to Black et.al., Br. J. Pharmacol., 1985, 86, 581.

The target in a further experiment is T3, CCKA (Cavia porcellus, UniProt Q63931).
T3 construct: The pancreatata were homogenised in 40 ml ice-cold HEPES buffer using a polytron; from tissue; host or cells: pancreas membranes of male Dunkin Hartley guinea-pigs
T3 sequence (Q63931 1-430): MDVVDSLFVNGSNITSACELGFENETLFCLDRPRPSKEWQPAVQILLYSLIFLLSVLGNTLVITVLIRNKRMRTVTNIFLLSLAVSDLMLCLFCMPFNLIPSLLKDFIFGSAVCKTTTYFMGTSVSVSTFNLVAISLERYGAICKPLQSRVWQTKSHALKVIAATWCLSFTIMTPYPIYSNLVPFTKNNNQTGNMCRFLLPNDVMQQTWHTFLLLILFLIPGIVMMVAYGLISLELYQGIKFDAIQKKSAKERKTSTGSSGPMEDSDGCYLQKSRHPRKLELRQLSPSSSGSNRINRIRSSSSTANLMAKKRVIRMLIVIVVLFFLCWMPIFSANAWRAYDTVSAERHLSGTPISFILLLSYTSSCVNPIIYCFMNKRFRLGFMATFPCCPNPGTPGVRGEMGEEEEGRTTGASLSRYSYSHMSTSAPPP
Briefly: CCKA radioligand binding assay in guinea-pig pancreas membranes ([125I]-CCK8(S)). The note with it: PD134,308 present, 150 minutes at 21±3°; for Ki: read-out: CCKA pKi (converted). In short, it runs like this: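 Male guinea-pig pancreas membranes (1 mg/ml wet tissue in HEPES pH 7.2, suspension containing 0.375 μM PD134,308) were incubated 150 min at 21±3° with [125I]-CCK8(S) ([…] added solution) and competitor. Non-specific binding used 100 nM L-364,718 (added solution). Bound radioligand was measured by GF/B filtration and gamma counting.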

In the case of “5-(1S-(3,5-dicarboxyphenylaminocarbonyl)-2-phenylethylaminocarbonyl)-6-(1-adamantanemethylaminocarbonyl)-benzofuran [Example 122]”, the “CCKB pKi” value on CCKB receptor amounted to 8.3. In addition, the “Gastrin pKB” value on gastrin is reported as 9.1. Moreover, on CCKA, the “CCKA pKi” value was found to be 5.4.
In the case of “5-(1S-(3,5-dicarboxyphenylaminocarbonyl)-2-(4-hydroxyphenyl)e thylaminocarbonyl)-6-(1-adamantanemethylaminocarbonyl)-indole and regioisomer with substituents at positions 5 and 6 reversed [Example 30]”, the “CCKB pKi” value at CCKB receptor is 7.6. Besides, the “Gastrin pKB” value on gastrin came to 9.1. The “CCKA pKi” value on CCKA is listed as 5.2.
Consider `C[C@H](NC(=O)c1cc2[nH]cnc2cc1C(=O)NCC12CC3CC(CC(C3)C1)C2)C(=O)Nc1cc(C(=O)O)cc(C(=O)O)c1` [Example 71, 5-(1S-(3,5-dicarboxyphenylaminocarbonyl)-ethylaminocarbonyl)-6-(1-adamantanemethylaminocarbonyl)-benzimidazole], for which the Ki at CCKB receptor is 398 nM; at CCKA it was 5010 nM. In addition, the Kb at gastrin is 100 nM.
For the compound `O=C(O)c1cc(NC(=O)[C@H](Cc2ccccc2)NC(=O)C2Cc3[nH]cnc3CN2C(=O)NCC23CC4CC(CC(C4)C2)C3)cc(C(=O)O)c1` (mixture of isomers) [Example 126, (±)-6-(1S-(3,5-dicarboxyphenylaminocarbonyl)-2-phenylethylaminocarbonyl)-5-(1-adamantanemethylaminocarbonyl)-4,5,6,7-tetrahydro-5-aza-benzimidazole], the figures for the Ki on CCKB receptor and at CCKA were 501 nM and 5010 nM, respectively. Also, the Kb at gastrin was 100 nM.
In the same order, the values of `O=C(O)c1cccc(NC(=O)[C@H](Cc2ccccc2)NC(=O)c2cc3[nH]cnc3cc2C(=O)NCC23CC4CC(CC(C4)C2)C3)c1` [Example 79, 5-(1S-(3-carboxyphenylaminocarbonyl)-2-phenylethylaminocarbonyl)-6-(1-adamantanemethylaminocarbonyl)-benzimidazole] are 20 nM, 1000 nM and 100 nM.
In the same order, the values of `O=C(O)c1cc(NC(=O)C(Cc2ccc(F)cc2F)NC(=O)c2cc3[nH]cnc3cc2C(=O)NCC23CC4CC(CC(C4)C2)C3)cc(C(=O)O)c1` (racemic) [Example 85, (±)-5-(1-(3,5-dicarboxyphenylaminocarbonyl)-2-(2,4-difluorophenyl)ethylaminocarbonyl)-6-(1-adamantanemethylaminocarbonyl)-benzimidazole] are 5.01 nM, 3160 nM and 1.26 nM.
Turning to `O=C(O)c1cc(NC(=O)[C@H](Cc2ccccc2C(F)(F)F)NC(=O)c2cc3[nH]cnc3cc2C(=O)NCC23CC4CC(CC(C4)C2)C3)cc(C(=O)O)c1` [Example 133, 5-(1S-(3,5-dicarboxyphenylaminocarbonyl)-2-(2-trifluoromethylphenyl)ethylaminocarbonyl)-6-(1-adamantanemethylaminocarbonyl)-benzimidazole], the Kb at gastrin was 7.94 nM. Also, on CCKA, the Ki was 7940 nM.
On to `O=C(NS(=O)(=O)c1cccc(NC(=O)[C@H](Cc2ccccc2)NC(=O)c2cc3[nH]cnc3cc2C(=O)NCC23CC4CC(CC(C4)C2)C3)c1)c1ccccc1` [Example 139, 5-(1S-(3-benzoylaminosulphonylphenylaminocarbonyl)-2-phenylethylaminocarbonyl)-6-(1-adamantanemethylaminocarbonyl)-benzimidazole], for which the Ki at CCKB receptor is 15.8 nM. Moreover, on gastrin, the Kb is 79.4 nM.
In the same order, the values of `CC(=O)NS(=O)(=O)c1cccc(NC(=O)[C@H](Cc2ccccc2)NC(=O)c2cc3[nH]cnc3cc2C(=O)NCC23CC4CC(CC(C4)C2)C3)c1` [Example 137, 5-(1S-(3-acetylaminosulphonylphenylaminocarbonyl)-2-phenylethylaminocarbonyl)-6-(1-adamantanemethylaminocarbonyl)-benzimidazole] are 20 nM and 15.8 nM.
On the same counts, the results for `C[C@@H](NC(=O)[C@H]1CCCN1C(=O)c1cc2ccccc2cc1C(=O)N(C)CC12CC3CC(CC(C3)C1)C2)C(=O)O` [Example 12, 2-(2R-(1R-carboxyethylaminocarbonyl)pyrrolidinocarbonyl)-3-(1-adamantanemethyl(N-methyl)aminocarbonyl)-naphthalene] are 1260 nM and 1260 nM.
In the same order, the values of `C[C@@H](NC(=O)[C@H]1CCCN1C(=O)c1cc2ccccc2cc1C(=O)NCC12CC3CC(CC(C3)C1)C2)C(=O)O` [Example 10, 2-(2R-(1R-carboxyethylaminocarbonyl)pyrrolidinocarbonyl)-3-(1-adamantanemethylaminocarbonyl)-naphthalene] are 1580 nM and 316 nM.
Turning to “1/2-(1-adamantanemethylaminocarbonyl)-naphthoic acid Regioisomer 1 [Example 21]”, the “Gastrin pKB” value on gastrin is given as 5.3. Moreover, the “CCKA pKi” value at CCKA was found to be 5.2.
Take “3-(1S-(3,5-dicarboxyphenylaminocarbonyl)-2-phenylethylaminocarbonyl)-2-(1-adamantanemethylaminocarbonyl)-1-phenylnaphthalene and its regioisomer with groups at positions 2 and 3 reversed [Example 56]”: the “CCKB pKi” value at CCKB receptor is on record as 7.0. For the same compound, the “Gastrin pKB” value on gastrin was determined as 7.1.
For `O=C(O)c1cc(NC(=O)[C@H](Cc2ccccc2)NC(=O)c2cc3c(cc2C(=O)NCC24CC5CC(CC(C5)C2)C4)[nH]c2ccccc23)cc(C(=O)O)c1` [Example 51, 3-(1S-(3,5-dicarboxyphenylaminocarbonyl)-2-phenylethylaminocarbonyl)-2-(1-adamantanemethylaminocarbonyl)-carbazole], on CCKB receptor, the Ki is 10 nM. Moreover, on gastrin, the Kb was 25.1 nM.
In the same order, the values of `CN(CC12CC3CC(CC(C3)C1)C2)C(=O)c1cc2ccccc2cc1C(=O)N1CCC[C@@H]1C(=O)NCC(=O)O` [Example 14, 2-(2R-carboxymethylaminocarbonylpyrrolidino-carbonyl)-3-(1-adamantanemethyl(N-methyl)aminocarbonyl)-naphthalene] are 1000 nM and 316 nM.
